Measured values reported in ChEMBL document CHEMBL5584254, “Identification of N-(((1S,3R,5S)-adamantan-1-yl)methyl)-3-((4-chlorophenyl)sulfonyl)benzenesulfonamide as novel Nav1.8 inhibitor with analgesic profile” (Bioorg Med Chem Lett, 2024).
Active and inactive are the calls of the source.

Experiments:
[1] = tested on: Mus musculus; assay: Analgesic activity in CFA-induced inflammatory pain mouse model assessed as inhibition of mechanical hyperalgesia by measuring delta AUC at 10 mM, ip by von frey test; type: functional, organism-based
[2] = tested on: Mus musculus; assay: Analgesic activity in CFA-induced inflammatory pain mouse model assessed as increase in mechanical pain threshold at 10 mM, ip measured upto 5 hrs by von frey test; type: functional, organism-based
[3] = tested on: Mus musculus; assay: Analgesic activity in CFA-induced inflammatory pain mouse model assessed as increase in mechanical pain threshold at 10 mM, ip measured within 5 hrs by von frey test; type: functional, organism-based
[4] = tested on: Mus musculus; assay: Analgesic activity in CFA-induced inflammatory pain mouse model assessed as effect on intensity of pain relief by measuring delta AUC at 10 mM, ip by von frey test; type: functional, organism-based
[5] = tested on: HEK293; assay: Binding affinity to Nav1.8 (unknown origin) expressed in HEK293 cells assessed as retention time by cell membrane chromatography analysis; type: cell membranes; conditions: Homo sapiens
[6] = tested on: Mus musculus; assay: Analgesic activity in CFA-induced inflammatory pain mouse model assessed as effect on duration of pain relief by measuring delta AUC at 10 mM, ip by von frey test; type: functional, organism-based
[7] = tested on: Nav1.8 (SCN10A); assay: Inhibition of Nav1.8 (unknown origin) at 10 uM under half […] state by whole-cell patch clamp analysis relative to control; conditions: human
[8] = species on record: Homo sapiens; assay: Inhibition of Nav1.8 (unknown origin) at 10 uM under resting state by whole-cell patch clamp analysis relative to control

## Cc1ccccc1C1CC(=O)C2=C(C1)NC(=O)C(CC(=O)Nc1cccc(Cl)c1C)C2 (stereo not given)
[1]
  Activity: Active
[2]
  Activity: Active
[3]
  Activity: Active
[4]
  Activity: Active
[5]
  Retention time: 5.76 min
[6]
  Activity: Active
[7]
  inhibition at 10 µM: 11.1%
[8]
  inhibition: 6.49%

## CC1Oc2ccccc2CC1/C=C1/Oc2cc(OC(=O)c3ccc4c(c3)OCO4)ccc2C1=O (stereo not given)
[5]
  Retention time: 0.4 min

## Cc1ccc(CS(=O)(=O)c2cn(CC(=O)Nc3ccc(F)cc3F)c3ccccc23)cc1
[2]
  Activity: Active
[5]
  Retention time: 14.7 min

## COc1cc(NC(=O)c2ccc(-c3ccc(Cl)cc3)o2)cc(OC)c1
[5]
  Retention time: 120 min
[8]
  inhibition: 62.1%

## O=S(=O)(NCC12CC3CC(CC(C3)C1)C2)c1cccc(S(=O)(=O)c2ccc(Cl)cc2)c1
[1]
  Activity: Active
[2]
  Activity: Active
[3]
  Activity: Active
[4]
  Activity: Active
[5]
  Retention time: 56 min
[6]
  Activity: Active
[7]
  inhibition at 10 µM: 63.8%
[8]
  inhibition: 14.3%

## COc1ccc(/C=N/NC(=O)NC23CC4CC(C2)CC(c2ccc(C)cc2)(C4)C3)cc1
[5]
  Retention time: 0.4 min

## Cc1cc(OCC(=O)Nc2ccc(C(C)(C)C)cc2)c2c3c(c(=O)oc2c1)CCC3
[5]
  Retention time: 0.4 min

## O=C(Cc1cccc2ccccc12)NN1C(=O)C2C3C=CC(C3)C2C1=O (stereo not given)
[5]
  Retention time: 1.9 min

## O=C(Cc1ccccc1)N/N=C/c1c2ccccc2cc2ccccc12
[5]
  Retention time: 0.4 min

## CCC1(C)Oc2ccc(NS(=O)(=O)c3ccc4c(c3)Cc3ccccc3-4)cc2O1 (stereo not given)
[5]
  Retention time: 0.4 min

## O=S(=O)(NCC12CC3CC(CC(C3)C1)C2)c1ccc(Cl)c2ccccc12
[5]
  Retention time: 0.4 min

## Cc1cc2oc(=O)cc(C)c2c(O)c1C1=NNC(c2ccc3c(c2)OCO3)C1 (stereo not given)
[5]
  Retention time: 0.4 min

## CN1c2ccc(F)cc2C(C)(C)C12C=Cc1cc([N+](=O)[O-])ccc1S2 (stereo not given)
[5]
  Retention time: 0.4 min

## Cc1cc(F)ccc1Oc1cc(C(F)(F)F)ccc1C(=O)Nc1cc[nH]c(=O)c1
[2]
  Activity: Active
[3]
  Activity: inactive
[5]
  Retention time: 8.56 min

## O=[N+]([O-])c1cccc(C2Oc3ccccc3C3CC(c4ccc(F)cc4)=NN32)c1 (stereo not given)
[5]
  Retention time: 0.4 min

## COc1cccc(C2C3=C(CC4=C2C(=O)CC(C)(C)C4)CC(C)(C)CC3=O)c1OCC(=O)O
[5]
  Retention time: 1.2 min

## Cc1ccc(C)c(Cn2cccc2CNC(=O)NC23CC4CC(CC(C4)C2)C3)c1
[5]
  Retention time: 0.4 min
